Publication doi:10.1101/2025.03.30.646166v1 (biorxiv, 2025)

Biological target: T1, human USP18 residues 52-372 (recombinant) (Homo sapiens, UniProt Q9UMW8)
T1 sequence (Q9UMW8 52-372): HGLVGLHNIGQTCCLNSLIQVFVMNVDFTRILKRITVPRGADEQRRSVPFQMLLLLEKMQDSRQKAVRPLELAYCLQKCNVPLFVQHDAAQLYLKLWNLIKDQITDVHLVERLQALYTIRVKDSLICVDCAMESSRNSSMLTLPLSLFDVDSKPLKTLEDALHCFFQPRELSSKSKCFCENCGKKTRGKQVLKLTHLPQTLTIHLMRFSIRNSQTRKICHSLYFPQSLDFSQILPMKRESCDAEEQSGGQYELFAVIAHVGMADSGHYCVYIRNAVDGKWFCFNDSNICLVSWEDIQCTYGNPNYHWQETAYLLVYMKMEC
Assay: fluorogenic ISG15ct-rhodamine cleavage, dose-response
Format: biochemical

IC50: 14.1 ± 1.6 µM
Compound: Cc1ccc2[nH]c3c(c2c1)CN(C(=O)c1cc(-c2ccccc2)[nH]n1)CC3 [compound 8655, ZHAWOC8655]
